A short description of one series: in vivo. Particulars: in vivo. Here is the method: (§1) The Daphnia magna test was performed in 4 mL 12-tissue culture wells, using 10 daphnids/well, with each sample being tested in duplicate. […] All experiments were conducted in the dark, in a plant growth chamber (Sanyo MLR-351 H, San Diego, CA, USA) at 25 ± 1 °C [32, 33].
(§2) Statistical analysis of the inhibitory effect on SrtA and the Daphnia magna bioassay was performed using GraphPad Prism version 5.01 software (GraphPad Software, Inc., La Jolla, CA, USA). A student’s t-test (p < 0.05) was applied in order to analyze the results obtained from replicates. […] The inhibition (I %) and lethality percentage (L %) values were calculated and plotted against the logarithm of concentrations and the corresponding curves were calculated using the least squares fit method. […] Whenever the obtained results permitted, the upper and lower limits of the 95% confidence interval (95% CI) and the correlation coefficient (r^2) were calculated.

The target of series [1] is T1, SrtA (Staphylococcus aureus, UniProt Q2FV99).
T1 construct: purchased Anaspec, San Jose, CA, USA
T1 sequence (Q2FV99 whole entry): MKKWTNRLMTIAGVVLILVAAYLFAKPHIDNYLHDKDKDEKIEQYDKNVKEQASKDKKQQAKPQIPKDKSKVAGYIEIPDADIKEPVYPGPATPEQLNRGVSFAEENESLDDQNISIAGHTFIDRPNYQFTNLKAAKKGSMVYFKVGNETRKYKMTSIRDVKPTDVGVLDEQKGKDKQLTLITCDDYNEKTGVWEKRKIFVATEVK
The series is described as follows: Sortase A activity assay (FRET, SensoLyte 520 kit). Type of series: biochemical, S. aureus. Here is the method:
The inhibitory activity of all of the compounds was determined by quantifying the increase in fluorescence intensity upon a cleavage 5-FAM/QXL® FRET substrate using a SensoLyte® 520 Sortase A Activity Assay Kit (Anaspec, San Jose, CA, USA). According to kit protocol, reactions were performed in a 96-well plate, with each well containing 10 μL test compound solution, 40 μL enzyme solution, and 50 μL sortase substrate solution. All compounds were dissolved in dimethyl sulfoxide (DMSO) and diluted with sterilized distilled water. The final concentration of DMSO was 1%. Each compound diluted in buffer to the tested concentration and was checked for intrinsic fluorescence. According to the kit protocol, we used the enzyme without the test compound as a control, a 1% DMSO control, and a substrate control. We used the kit inhibitor, 4-hydroxymercuribenzoic acid (HMB), as the positive control. Reactions were carried out for 1 h at room temperature and analyzed fluorometrically (SpectraMAX Gemini XS, CA, USA) at Ex/Em = 490 nm/520 nm. All reported values are the means of triplicate assays.

The next series relates to tested bacteria strains. Description: Preliminary antibacterial screening by well diffusion test. Type of series: cell-based. The note with it: eight strains. Here is the method: (§3) Eight food-related microorganisms were used to evaluate the antimicrobial properties, including the Gram-positive Staphylococcus aureus ATCC 6538, Staphylococcus aureus ATCC 25923, Staphylococcus epidermidis ATCC 12228, Enterococcus faecalis ATCC 29212, Bacillus cereus ATCC 11778, and the Gram-negative Escherichia coli ATCC 8739, Escherichia coli ATCC 35218, and Proteus mirabilis ATCC 29245. The antibacterial assays were performed by the well diffusion and broth microdilution method (ISO 20776-1) in order to determine MIC.
(§4) Test microorganisms were stored in freezing conditions and activated by cultivation in Nutrient broth at 37 °C for 24 h. Overnight cultures were used to obtain the inoculum by transferring an amount of cells from the broth to a test tube containing 5 mL of demineralized water until a turbidity of 1–2 × 10^8 colony-forming unit (CFU)/mL was achieved, equivalent to 0.5 McFarland standard. Dilutions of the inoculum were cultured on nutrient agar supplemented with 5% sheep blood to verify the absence of contamination and the validity of the inoculum.
Compounds were investigated by the agar well diffusion method. The plates containing Mueller Hinton agar medium were spread with 0.1 mL of the bacterial inoculum. […] Microbial inhibition was visually appreciated as the diameter of the inhibition zones surrounding the well and recorded in mm. […]
A general note: A growth-free zone around the sample is the usual read-out of agar diffusion tests.

In series [2] the test system is B. cereus ATCC 11778. Description: Broth microdilution MIC. Type of series: cell-based. The note with it: Bacillus cereus, ATCC11778; 37 °C, 24 h. Here is the method: (§5) Eight food-related microorganisms were used to evaluate the antimicrobial properties, including the Gram-positive Staphylococcus aureus ATCC 6538, Staphylococcus aureus ATCC 25923, Staphylococcus epidermidis ATCC 12228, Enterococcus faecalis ATCC 29212, Bacillus cereus ATCC 11778, and the Gram-negative Escherichia coli ATCC 8739, Escherichia coli ATCC 35218, and Proteus mirabilis ATCC 29245. The antibacterial assays were performed by the well diffusion and broth microdilution method (ISO 20776-1) in order to determine MIC. Test microorganisms were stored in freezing conditions and activated by cultivation in Nutrient broth at 37 °C for 24 h. […] Dilutions of the inoculum were cultured on nutrient agar supplemented with 5% sheep blood to verify the absence of contamination and the validity of the inoculum. Bacterial strains susceptible to compounds in the well diffusion assay were studied for their MIC values using 96-well microtiter plates. The experiments were conducted using the reference method for testing the in vitro activity of the antimicrobial agents where MIC is the lowest concentration of an antimicrobial agent that, under defined in vitro conditions, prevents the appearance of visible growth of the microorganism after its incubation overnight. A total of 250 μL of the bacterial suspension in sterile demineralized water was added to 11 mL Mueller-Hinton broth (MBH) to a concentration of 5 × 10^7 cells/mL. Compounds to be investigated were dissolved in MBH containing bacterial inoculum (5 × 10^4 CFU/well) to achieve the two-fold serial concentrations ranging between […] [30]. The microplates were covered with an adhesive seal and incubated at 37 °C for 24 h. DMSO combined with MHB was used as the negative control for each bacterial strain. The plates were visually read under normal laboratory lighting using a manual mirror viewer. Two replicates were conducted for each compound and each bacterial strain.
A general note: Broth dilution looks for growth in wells or tubes with falling amounts of substance.

For series [3], the system named is S. epidermidis ATCC 12228. Description: Broth microdilution MIC. Type of series: cell-based. The note with it: Staphylococcus epidermidis, ATCC12228; 37 °C, 24 h. Here is the method: as §5
The subject of series [4] is S. aureus ATCC 25923. The series is described as follows: Broth microdilution MIC. The class given is cell-based. Particulars: Staphylococcus aureus, ATCC25923; 37 °C, 24 h. Here is the method: as §5
Series [5] concerns B. cereus ATCC 11778. Description: Well diffusion test. Type of series: cell-based. Particulars: Bacillus cereus, ATCC11778; well 6 mm; gentamicin 10 μg, emodin 13.5 μg, rhein 14.2 μg; 37 °C, 24 h; read-out: Diameters of inhibition zone (mm), including diameter of well. Here is the method: as §3, §4
(§6) Compounds were investigated by the agar well diffusion method. The plates containing Mueller Hinton agar medium were spread with 0.1 mL of the bacterial inoculum. The wells (6 mm diameter) were filled with 50 μL of the sample. The plates were incubated at 37 °C for 24 h. DMSO was used as a negative control and one standard antibiotic (gentamicin, 10 μg) as a positive control. Microbial inhibition was visually appreciated as the diameter of the inhibition zones surrounding the well and recorded in mm. All tests were run in triplicate for each combination of extract and microbial strain [26].

A further series concerns P. mirabilis ATCC 29245. Description: Well diffusion test. The class given is cell-based. The note with it: Proteus mirabilis, ATCC29245; well 6 mm; gentamicin 10 μg, emodin 13.5 μg, rhein 14.2 μg; 37 °C, 24 h; read-out: Diameters of inhibition zone (mm), including diameter of well. Here is the method:
as §3, §4, §6

The subject of another series is E. faecalis ATCC 29212. Description: Well diffusion test. Type of series: cell-based. The note with it: Enterococcus faecalis, ATCC29212; well 6 mm; gentamicin 10 μg, emodin 13.5 μg, rhein 14.2 μg; 37 °C, 24 h; read-out: Diameters of inhibition zone (mm), including diameter of well. Here is the method: as §3, §4, §6
For the next series, the system named is E. coli ATCC 8739. Description: Well diffusion test. Particulars: Escherichia coli, ATCC8739; well 6 mm; gentamicin 10 μg, emodin 13.5 μg, rhein 14.2 μg; 37 °C, 24 h; read-out: Diameters of inhibition zone (mm), including diameter of well. The class given is cell-based. Here is the method: as §3, §4, §6
In series [6] the test system is S. epidermidis ATCC 12228. Description: Well diffusion test. The class given is cell-based. Particulars: Staphylococcus epidermidis, ATCC12228; well 6 mm; gentamicin 10 μg, emodin 13.5 μg, rhein 14.2 μg; 37 °C, 24 h; read-out: Diameters of inhibition zone (mm), including diameter of well. Here is the method:
as §3, §4, §6

Series [7] deals with S. aureus ATCC 25923. Description: Well diffusion test. The class given is cell-based. The note with it: Staphylococcus aureus, ATCC25923; well 6 mm; gentamicin 10 μg, emodin 13.5 μg, rhein 14.2 μg; 37 °C, 24 h; read-out: Diameters of inhibition zone (mm), including diameter of well. Here is the method:
as §3, §4, §6

A further series has as its system S. aureus ATCC 6538. Description: Well diffusion test. Type of series: cell-based. Particulars: Staphylococcus aureus, ATCC6538; well 6 mm; gentamicin 10 μg, emodin 13.5 μg, rhein 14.2 μg; 37 °C, 24 h; read-out: Diameters of inhibition zone (mm), including diameter of well. Here is the method:
as §3, §4, §6

For the next series, the system named is E. coli ATCC 35218. The series is described as follows: Well diffusion test. The class given is cell-based. The note with it: Escherichia coli, ATCC35218; well 6 mm; gentamicin 10 μg, emodin 13.5 μg, rhein 14.2 μg; 37 °C, 24 h; read-out: Diameters of inhibition zone (mm), including diameter of well. Here is the method: as §3, §4, §6
The next series deals with Daphnia magna. The series is described as follows: in vivo. Particulars: after 48 h; tested 0.5 to 100 μM. Here is the method:
as §1, §2

Series [8] can be described thus: Solubility in water (observation during FRET testing).
Series [9] deals with T1, SrtA. The note with it: cited from earlier work.

≈ marks a conversion by molar mass, not a printed value. Entries after “also recorded” stand apart in the source; their conditions may differ. Where only a bound is given, the exact number is not on record here.

Here are results for four compounds from PMC5666896, “Molecular Docking and Screening Studies of New Natural Sortase A Inhibitors” (International Journal of Molecular Sciences, 2017).

By LC50 is commonly meant the concentration lethal to half of the exposed cells or organisms. A word on the inhibition: it is the drop in the measured response relative to a control, in per cent. A low value points to a response near the control. In general, MIC refers to the least concentration at which growth counts as inhibited. High values mean weaker potency, low ones greater potency. One may read the zone of inhibition as the extent of the growth-free halo in a diffusion test.

As to `Cc1cc(O)c2c(c1)C(=O)c1cc(O)cc(O)c1C2=O` [Emodin], the LC50 at 24 h in the series “in vivo” was determined as 34.7 µM. Besides, in “in vivo”, the LC50 at 48 h was determined as 24.2 µM. In addition, the “SrtA inhibition (result in words)” value at SrtA [1] is listed as “statistically significant SrtA inhibition”. This compound also yielded an inhibition at 100 µM on SrtA [1] of 10.1%. For the same compound, in the series on tested bacteria strains, the “Antimicrobial effect (result in words)” value is “observable antimicrobial effect”. Also, the figures for the MIC (against B. cereus ATCC 11778 [2]; in [3]; with S. aureus ATCC 25923 [4]) were 16 µg/mL (≈ 59.2 µM), 8 µg/mL (≈ 29.6 µM) and 8 µg/mL (≈ 29.6 µM), respectively. Moreover, the zone of inhibition at 13.5 µg/disc in the series on B. cereus ATCC 11778 [5] stood at 12 mm; in the series with P. mirabilis ATCC 29245 it was 6 mm; with E. faecalis ATCC 29212 it was 6 mm; in the series on E. coli ATCC 8739 it was 6 mm; in series [6] it was 14 mm; with S. aureus ATCC 25923 [7], 20 mm. For the same compound, the zone of inhibition at 13.5 µg/disc with S. aureus ATCC 6538 and in the series with E. coli ATCC 35218 was 6 mm in each case.
Take `CNC(C)C1CCC(N)C(OC2C(N)CC(N)C(OC3OCC(C)(O)C(NC)C3O)C2O)O1` (centres unmarked) [Gentamicin, reference compound]: the minimum inhibitory concentration (MIC) in the series with B. cereus ATCC 11778 [2] amounted to 4 µg/mL (≈ 8.38 µM); in series [3] it was 2 µg/mL (≈ 4.19 µM); with S. aureus ATCC 25923 [4] it was 2 µg/mL (≈ 4.19 µM). In addition, the zone of inhibition at 10 µg/disc was determined as 24 mm in the series with B. cereus ATCC 11778 [5]; 20 mm in the series on P. mirabilis ATCC 29245; 12 mm with E. faecalis ATCC 29212; 21 mm in the series with E. coli ATCC 8739; 29 mm in series [6]; 21 mm in the series with S. aureus ATCC 25923 [7]. Also, the zone of inhibition at 10 µg/disc came to 17 mm in the series with S. aureus ATCC 6538 and 20 mm in the series on E. coli ATCC 35218.
The compound `O=c1c(O)c(-c2ccc(O)c(O)c2)oc2cc(O)cc(O)c12` [Quercetin] registered a Maximum lethality in the series with Daphnia magna of no more than 30%. Also, at SrtA [1], the “SrtA inhibition (result in words)” value is “statistically significant SrtA inhibition” and the inhibition at 10 µM was 8.55%. The “Solubility in water (result in words)” value in series [8] was “low solubility in water; also recorded: very low solubility in water”. Moreover, the “Inhibition of SrtA enzymatic activity (result in words)” value at SrtA [9] is recorded as “proven to inhibit SrtA enzymatic activity”.
For `O=C(O)c1cc(O)c2c(c1)C(=O)c1cccc(O)c1C2=O` [Rhein], on SrtA [1], the “SrtA inhibition (result in words)” value is given as “statistically significant SrtA inhibition”. For the same compound, on SrtA [1], the inhibition at 10 µM is 7.01%. For the same compound, the “Antimicrobial effect (result in words)” value in the series on tested bacteria strains was “observable antimicrobial effect”. Moreover, in series [8], the “Solubility in water (result in words)” value is “low solubility in water”. For the same compound, the minimum inhibitory concentration (MIC) with B. cereus ATCC 11778 [2] worked out at 32 µg/mL (≈ 113 µM); in series [3] it was 16 µg/mL (≈ 56.3 µM); against S. aureus ATCC 25923 [4] it was 64 µg/mL (≈ 225 µM). The zone of inhibition at 14.2 µg/disc in the series on B. cereus ATCC 11778 [5] was 15 mm; in the series with P. mirabilis ATCC 29245, 6 mm; in the series with E. faecalis ATCC 29212 it was 6 mm; with E. coli ATCC 8739, 6 mm; in [6] it was 30 mm; in the series on S. aureus ATCC 25923 [7] it was 12 mm. Further, the zone of inhibition at 14.2 µg/disc in the series with S. aureus ATCC 6538 and with E. coli ATCC 35218 was 6 mm throughout.
